Experiments:
Set-up in all cases: scale not given here
ECHOG Barnyardgrass [1] = assay: Postemergence herbicidal evaluation, ECHOG; format: in vivo, Echinochloa crus-galli, (L.) Beau; settings: postemergence spray, rated about two-three weeks after treatment
In short: (§1)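 Two-week-old seedlings sprayed postemergence with compound in 80/20 acetone/water plus 1.0% methylated seed oil, at about 0.006–0.400 kg/ha, through a nozzle at 40 psi. Plants kept under greenhouse conditions and visually rated about two–three weeks after treatment; ratings from repeat tests averaged.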

ORYSAT Rice, Tebonnet [2] = assay: Postemergence herbicidal evaluation, ORYSAT; format: in vivo, Oryza sativa, (L.); settings: postemergence spray, rated about two-three weeks after treatment
In short: as §1

GLXMAW Soybean, Williams [3] = assay: Postemergence herbicidal evaluation, GLXMAW; format: in vivo, Glycine max, (L.) Merr. cv Williams; settings: postemergence spray, rated about two-three weeks after treatment
In short: as §1

CASOB Sicklepod [4] = assay: Postemergence herbicidal evaluation, CASOB; format: in vivo, Cassia obtusifolia, L.; settings: postemergence spray, rated about two-three weeks after treatment
In short: as §1

ZEAMX Corn, Field [5] = assay: Postemergence herbicidal evaluation, ZEAMX; format: in vivo, Zea mays, L. (Sammel-Bezeichnung); settings: postemergence spray, rated about two-three weeks after treatment
In short: as §1

GALAP Galium [6] = assay: Postemergence herbicidal evaluation, GALAP; format: in vivo, Galium aparine; settings: postemergence spray, rated about two-three weeks after treatment
In short: as §1

ECHOG Barnyardgrass [7] = assay: Preemergence herbicidal evaluation, ECHOG; format: in vivo, Echinochloa crus-galli, (L.) Beau; settings: preemergence
In short: (§2)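 Seeds mixed with potting soil in cups, then sprayed preemergence with aqueous acetone test solution at about 0.013 to 0.800 kg per hectare equivalent. Cups kept under standard greenhouse care; plants rated on a visual scale four to five weeks after treatment.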

AMBEL Ragweed, Common [8] = assay: Postemergence herbicidal evaluation, AMBEL; format: in vivo, Ambrosia artemisifolia, L.; settings: postemergence spray, rated about two-three weeks after treatment
In short: as §1

[9] = test system: TRZAWR Wheat, Winter, cv Riband; assay: Preemergence herbicidal evaluation, TRZAWR; format: in vivo, Triticum aestivum; settings: preemergence
In short: as §2

ABUTH Velvetleaf [10] = assay: Preemergence herbicidal evaluation, ABUTH; format: in vivo, Abutilon theophrasti, Medic.; settings: preemergence
In short: as §2

ABUTH Velvetleaf [11] = assay: Postemergence herbicidal evaluation, ABUTH; format: in vivo, Abutilon theophrasti, Medic.; settings: postemergence spray, rated about two-three weeks after treatment
In short: as §1

[12] = test system: CHEAL Lambsquarters, Common; assay: Postemergence herbicidal evaluation, CHEAL; format: in vivo, Chenopodium album, L.; settings: postemergence spray, rated about two-three weeks after treatment
In short: as §1

SETVI Foxtail, Green [13] = assay: Preemergence herbicidal evaluation, SETVI; format: in vivo, Setaria viridis, (L.) Beau; settings: preemergence
In short: as §2

SETVI Foxtail, Green [14] = assay: Postemergence herbicidal evaluation, SETVI; format: in vivo, Setaria viridis, (L.) Beau; settings: postemergence spray, rated about two-three weeks after treatment
In short: as §1

[15] = test system: IPOHE Morningglory, Ivyleaf; assay: Preemergence herbicidal evaluation, IPOHE; format: in vivo, Ipomoea hederacea, (L.) Jacq.; settings: preemergence
In short: as §2

CASOB Sicklepod [16] = assay: Preemergence herbicidal evaluation, CASOB; format: in vivo, Cassia obtusifolia, L.; settings: preemergence
In short: as §2

GALAP Galium [17] = assay: Preemergence herbicidal evaluation, GALAP; format: in vivo, Galium aparine; settings: preemergence
In short: as §2

[18] = test system: IPOHE Morningglory, Ivyleaf; assay: Postemergence herbicidal evaluation, IPOHE; format: in vivo, Ipomoea hederacea, (L.) Jacq.; settings: postemergence spray, rated about two-three weeks after treatment
In short: as §1

[19] = test system: CHEAL Lambsquarters, Common; assay: Preemergence herbicidal evaluation, CHEAL; format: in vivo, Chenopodium album, L.; settings: preemergence
In short: as §2

[20] = test system: TRZAWR Wheat, Winter, cv Riband; assay: Postemergence herbicidal evaluation, TRZAWR; format: in vivo, Triticum aestivum; settings: postemergence spray, rated about two-three weeks after treatment
In short: as §1

GLXMAW Soybean, Williams [21] = assay: Preemergence herbicidal evaluation, GLXMAW; format: in vivo, Glycine max, (L.) Merr. cv Williams; settings: preemergence
In short: as §2

AMBEL Ragweed, Common [22] = assay: Preemergence herbicidal evaluation, AMBEL; format: in vivo, Ambrosia artemisifolia, L.; settings: preemergence
In short: as §2

ZEAMX Corn, Field [23] = assay: Preemergence herbicidal evaluation, ZEAMX; format: in vivo, Zea mays, L. (Sammel-Bezeichnung); settings: preemergence
In short: as §2

ORYSAT Rice, Tebonnet [24] = assay: Preemergence herbicidal evaluation, ORYSAT; format: in vivo, Oryza sativa, (L.); settings: preemergence
In short: as §2

## Cc1cc(O)ccc1-n1nnc2cc(F)c(-n3c(=O)cc(C(F)(F)F)n(C)c3=O)cc21 [Example 33]
ECHOG Barnyardgrass [1]; 0.008 kg/ha
  Postemergence herbicidal rating ECHCG: 0.0
ECHOG Barnyardgrass [1]; 0.016 kg/ha
  Postemergence herbicidal rating ECHCG: 0.0
ECHOG Barnyardgrass [1]; 0.032 kg/ha
  Postemergence herbicidal rating ECHCG: 0.0
ECHOG Barnyardgrass [1]; 0.062 kg/ha
  Postemergence herbicidal rating ECHCG: 0.0
ORYSAT Rice, Tebonnet [2]; 0.008 kg/ha
  Postemergence herbicidal rating ORYSAT: 0.0
ORYSAT Rice, Tebonnet [2]; 0.016 kg/ha
  Postemergence herbicidal rating ORYSAT: 0.0
ORYSAT Rice, Tebonnet [2]; 0.032 kg/ha
  Postemergence herbicidal rating ORYSAT: 0.5
ORYSAT Rice, Tebonnet [2]; 0.062 kg/ha
  Postemergence herbicidal rating ORYSAT: 2.0
GLXMAW Soybean, Williams [3]; 0.008 kg/ha
  Postemergence herbicidal rating GLXMAW: 1.5
GLXMAW Soybean, Williams [3]; 0.016 kg/ha
  Postemergence herbicidal rating GLXMAW: 3.5
GLXMAW Soybean, Williams [3]; 0.032 kg/ha
  Postemergence herbicidal rating GLXMAW: 4.0
GLXMAW Soybean, Williams [3]; 0.062 kg/ha
  Postemergence herbicidal rating GLXMAW: 5.0
CASOB Sicklepod [4]; 0.008 kg/ha
  Postemergence herbicidal rating CASOB: 0.0
CASOB Sicklepod [4]; 0.016 kg/ha
  Postemergence herbicidal rating CASOB: 0.0
CASOB Sicklepod [4]; 0.032 kg/ha
  Postemergence herbicidal rating CASOB: 0.0
CASOB Sicklepod [4]; 0.062 kg/ha
  Postemergence herbicidal rating CASOB: 0.0
ZEAMX Corn, Field [5]; 0.008 kg/ha
  Postemergence herbicidal rating ZEAMX: 3.0
ZEAMX Corn, Field [5]; 0.016 kg/ha
  Postemergence herbicidal rating ZEAMX: 3.0
ZEAMX Corn, Field [5]; 0.032 kg/ha
  Postemergence herbicidal rating ZEAMX: 3.5
ZEAMX Corn, Field [5]; 0.062 kg/ha
  Postemergence herbicidal rating ZEAMX: 4.0
GALAP Galium [6]; 0.008 kg/ha
  Postemergence herbicidal rating GALAP: 0.0
GALAP Galium [6]; 0.016 kg/ha
  Postemergence herbicidal rating GALAP: 0.0
GALAP Galium [6]; 0.032 kg/ha
  Postemergence herbicidal rating GALAP: 0.0
GALAP Galium [6]; 0.062 kg/ha
  Postemergence herbicidal rating GALAP: 0.0
ECHOG Barnyardgrass [7]; rate 0.016 kg/ha
  ECHCG herbicidal rating: 0.0
ECHOG Barnyardgrass [7]; rate 0.032 kg/ha
  ECHCG herbicidal rating: 0.0
ECHOG Barnyardgrass [7]; rate 0.062 kg/ha
  ECHCG herbicidal rating: 0.0
ECHOG Barnyardgrass [7]; rate 0.125 kg/ha
  ECHCG herbicidal rating: 0.0
AMBEL Ragweed, Common [8]; 0.008 kg/ha
  Postemergence herbicidal rating AMBEL: 0.0
AMBEL Ragweed, Common [8]; 0.016 kg/ha
  Postemergence herbicidal rating AMBEL: 0.0
AMBEL Ragweed, Common [8]; 0.032 kg/ha
  Postemergence herbicidal rating AMBEL: 0.0
AMBEL Ragweed, Common [8]; 0.062 kg/ha
  Postemergence herbicidal rating AMBEL: 0.0
[9]; rate 0.016 kg/ha
  TRZAWR herbicidal rating: 0.0
[9]; rate 0.032 kg/ha
  TRZAWR herbicidal rating: 0.0
[9]; rate 0.062 kg/ha
  TRZAWR herbicidal rating: 0.0
[9]; rate 0.125 kg/ha
  TRZAWR herbicidal rating: 0.0
ABUTH Velvetleaf [10]; rate 0.016 kg/ha
  ABUTH herbicidal rating: 0.0
ABUTH Velvetleaf [10]; rate 0.032 kg/ha
  ABUTH herbicidal rating: 0.0
ABUTH Velvetleaf [10]; rate 0.062 kg/ha
  ABUTH herbicidal rating: 0.0
ABUTH Velvetleaf [10]; rate 0.125 kg/ha
  ABUTH herbicidal rating: 9.0
ABUTH Velvetleaf [11]; 0.008 kg/ha
  Postemergence herbicidal rating ABUTH: 0.0
ABUTH Velvetleaf [11]; 0.016 kg/ha
  Postemergence herbicidal rating ABUTH: 3.0
ABUTH Velvetleaf [11]; 0.032 kg/ha
  Postemergence herbicidal rating ABUTH: 3.0
ABUTH Velvetleaf [11]; 0.062 kg/ha
  Postemergence herbicidal rating ABUTH: 5.0
[12]; 0.008 kg/ha
  Postemergence herbicidal rating CHEAL: 0.0
[12]; 0.016 kg/ha
  Postemergence herbicidal rating CHEAL: 0.0
[12]; 0.032 kg/ha
  Postemergence herbicidal rating CHEAL: 0.0
[12]; 0.062 kg/ha
  Postemergence herbicidal rating CHEAL: 2.0
SETVI Foxtail, Green [13]; rate 0.016 kg/ha
  SETVI herbicidal rating: 0.0
SETVI Foxtail, Green [13]; rate 0.032 kg/ha
  SETVI herbicidal rating: 0.0
SETVI Foxtail, Green [13]; rate 0.062 kg/ha
  SETVI herbicidal rating: 0.0
SETVI Foxtail, Green [13]; rate 0.125 kg/ha
  SETVI herbicidal rating: 0.0
SETVI Foxtail, Green [14]; 0.008 kg/ha
  Postemergence herbicidal rating SETVI: 0.0
SETVI Foxtail, Green [14]; 0.016 kg/ha
  Postemergence herbicidal rating SETVI: 0.0
SETVI Foxtail, Green [14]; 0.032 kg/ha
  Postemergence herbicidal rating SETVI: 0.0
SETVI Foxtail, Green [14]; 0.062 kg/ha
  Postemergence herbicidal rating SETVI: 0.0
[15]; rate 0.016 kg/ha
  IPOHE herbicidal rating: 0.0
[15]; rate 0.032 kg/ha
  IPOHE herbicidal rating: 0.0
[15]; rate 0.062 kg/ha
  IPOHE herbicidal rating: 0.0
[15]; rate 0.125 kg/ha
  IPOHE herbicidal rating: 0.0
CASOB Sicklepod [16]; rate 0.016 kg/ha
  CASOB herbicidal rating: 0.0
CASOB Sicklepod [16]; rate 0.032 kg/ha
  CASOB herbicidal rating: 0.0
CASOB Sicklepod [16]; rate 0.062 kg/ha
  CASOB herbicidal rating: 0.0
CASOB Sicklepod [16]; rate 0.125 kg/ha
  CASOB herbicidal rating: 0.0
GALAP Galium [17]; rate 0.016 kg/ha
  GALAP herbicidal rating: 0.0
GALAP Galium [17]; rate 0.032 kg/ha
  GALAP herbicidal rating: 0.0
GALAP Galium [17]; rate 0.062 kg/ha
  GALAP herbicidal rating: 0.0
GALAP Galium [17]; rate 0.125 kg/ha
  GALAP herbicidal rating: 0.0
[18]; 0.008 kg/ha
  Postemergence herbicidal rating IPOHE: 0.0
[18]; 0.016 kg/ha
  Postemergence herbicidal rating IPOHE: 2.0
[18]; 0.032 kg/ha
  Postemergence herbicidal rating IPOHE: 3.0
[18]; 0.062 kg/ha
  Postemergence herbicidal rating IPOHE: 9.0
[19]; rate 0.016 kg/ha
  CHEAL herbicidal rating: 9.0
[19]; rate 0.032 kg/ha
  CHEAL herbicidal rating: 9.0
[19]; rate 0.062 kg/ha
  CHEAL herbicidal rating: 9.0
[19]; rate 0.125 kg/ha
  CHEAL herbicidal rating: 9.0
[20]; 0.008 kg/ha
  Postemergence herbicidal rating TRZAWR: 0.5
[20]; 0.016 kg/ha
  Postemergence herbicidal rating TRZAWR: 1.0
[20]; 0.032 kg/ha
  Postemergence herbicidal rating TRZAWR: 2.0
[20]; 0.062 kg/ha
  Postemergence herbicidal rating TRZAWR: 2.5
GLXMAW Soybean, Williams [21]; rate 0.016 kg/ha
  GLXMAW herbicidal rating: 0.0
GLXMAW Soybean, Williams [21]; rate 0.032 kg/ha
  GLXMAW herbicidal rating: 0.0
GLXMAW Soybean, Williams [21]; rate 0.062 kg/ha
  GLXMAW herbicidal rating: 0.0
GLXMAW Soybean, Williams [21]; rate 0.125 kg/ha
  GLXMAW herbicidal rating: 0.0
AMBEL Ragweed, Common [22]; rate 0.016 kg/ha
  AMBEL herbicidal rating: 0.0
AMBEL Ragweed, Common [22]; rate 0.032 kg/ha
  AMBEL herbicidal rating: 0.0
AMBEL Ragweed, Common [22]; rate 0.062 kg/ha
  AMBEL herbicidal rating: 0.0
AMBEL Ragweed, Common [22]; rate 0.125 kg/ha
  AMBEL herbicidal rating: 0.0
ZEAMX Corn, Field [23]; rate 0.016 kg/ha
  ZEAMX herbicidal rating: 0.0
ZEAMX Corn, Field [23]; rate 0.032 kg/ha
  ZEAMX herbicidal rating: 0.0
ZEAMX Corn, Field [23]; rate 0.062 kg/ha
  ZEAMX herbicidal rating: 0.0
ZEAMX Corn, Field [23]; rate 0.125 kg/ha
  ZEAMX herbicidal rating: 0.0
ORYSAT Rice, Tebonnet [24]; rate 0.016 kg/ha
  ORYSAT herbicidal rating: 0.0
ORYSAT Rice, Tebonnet [24]; rate 0.032 kg/ha
  ORYSAT herbicidal rating: 0.0
ORYSAT Rice, Tebonnet [24]; rate 0.062 kg/ha
  ORYSAT herbicidal rating: 0.0
ORYSAT Rice, Tebonnet [24]; rate 0.125 kg/ha
  ORYSAT herbicidal rating: 0.0

Source: patent US20020111274A1, “1-alkyl-3-[1-(substituted phenyl) benzotriazol-6-yl] uracils” (BASF Aktiengesellschaft, priority 2000, published 2002)
